Experimental data from patent publication US10245237B2, “Compressed tablet containing cannabidiol, method for its manufacture and use of such tablet in oral treatment of psychosis or anxiety disorders” (Echo Pharmaceuticals B.V., priority 2013, dated 2019).

What was measured:
[1] = A. J. Poortman, H. Huizer, Forensic Science International (1999); cited from earlier work
schizophrenic patient = details: cited from earlier work
[2] = Rate of dissolution of CBD according to Ph. Eur. 2.9.3 for oral tablets; type: physicochemical; details: 1 wt. % SDS in water, pH 7, 36-41° C.
Procedure: The rate of dissolution of CBD from the compressed tablets described in Example 2 was tested according to European Pharmacopeia (Ph. Eur. 2.9.3) for oral tablets. The rate of dissolution of pure CBD (20 mg) was determined using the same method.
The dissolution medium consisted of a solution of 1 wt. % SDS in water. The pH of the medium had been adjusted to 7 with diluted HCl. During the experiments, the temperature of the dissolution media was maintained between 36 and 41° C. under stirring. After dropping the tablet in the dissolution medium, samples were taken at various time intervals with a disposable syringe. The samples were filtered immediately over a syringe filter into a HPLC vial and analyzed by HPLC.

C=C(C)[C@@H]1CCC(C)=C[C@H]1c1c(O)cc(CCCCC)cc1O [CBD, cannabidiol]
stability of the drug [1]: unstable | symptom course (schizophrenic patient; patient with schizophrenia, dose doubled every 5 days, at 1280 mg/day): trend for symptom improvement | clinical course during CBD treatment (schizophrenic patient; schizophrenic patient, CBD dissolved in oil up to 1500 mg/day for 4 weeks): significant improvement | % (w/w) of CBD dissolved ([2]; 1 min): 2.6 % (w/w) | % (w/w) of CBD dissolved ([2]; 4 min): 9.2 % (w/w) | % (w/w) of CBD dissolved ([2]; 8 min): 18.6 % (w/w) | % (w/w) of CBD dissolved ([2]; 15 min): 27.4 % (w/w) | % (w/w) of CBD dissolved ([2]; 30 min): 35.2 % (w/w) | % (w/w) of CBD dissolved ([2]; 45 min): 42.4 % (w/w) | % (w/w) of CBD dissolved ([2]; 60 min): 45.5 % (w/w)
